Assay results as given in paper PMC8145986, “In Vitro Enzymatic and Kinetic Studies, and In Silico Drug-Receptor Interactions, and Drug-Like Profiling of the 5-Styrylbenzamide Derivatives as Potential Cholinesterase and β-Secretase Inhibitors with Antioxidant Properties” (Antioxidants, 2021).

How the values were obtained:
β-secretase = molecular target: T1, β-secretase (Homo sapiens, UniProt P56817); test: β-Secretase (BACE-1) inhibition assay; type: biochemical; settings: mean ± SD of three independent experiments
T1 construct: purchased Thermo Fisher Scientific Corporation; host or cells: baculovirus-expressed
Method: The β-secretase inhibitory activities of the test compounds were assayed in triplicates in 96-well plates using a recombinant baculovirus-expressed β-secretase and a specific substrate (Rh-[…]-Quencher), according to the manufacturer’s (Thermo Fisher Scientific Corporation, Johannesburg, Gauteng, South Africa) instructions, as described in our previous study. […] To each well, 2.0 μL human recombinant β-secretase (1.0 U/mL) was added to start the reaction and the reaction mixture was incubated for 60 min at room temperature. […] The IC50 and standard deviation values of both the test compounds and reference standard were calculated using the Graph Pad Prism.

[1] = Metal chelation study by UV-vis spectrometry; type: physicochemical; settings: room temperature
Method: The metal chelating ability of compounds 2a and 3b toward Cu^2+ and Zn^2+ was evaluated by ultraviolet–visible (UV–Vis) spectrometry. A solution of the test compound in methanol (30 μM, final concentration) alone or in the presence of CuCl2 or ZnCl2 (30 μM, final concentration) was stirred at RT for 30 min. The absorption spectra were recorded at room temperature on a PerkinElmer UV/Vis spectrometer (Perkin Elmer, Inc., Midrand, Johannesburg, South Africa) at wavelengths ranging from 200 to 1200 nm.
The ability of compound 2a to chelate Cu^2+ or Zn^2+ was assessed using a UV–vis spectrophotometric assay with a wavelength in the region of 200–1200 nm. The absorption spectrum of 2a (Figure 2) acquired in methanol at room temperature is characterized by four discernible absorption bands, around λ 300, 500, 690, and 1000 nm, respectively. These bands are reduced to two distinct bands of different intensities in the presence of either CuCl2 or ZnCl2. […] A bathochromic shift of the band found around 500 nm in the spectrum of 2a to around 580 nm in the presence of ZnCl2 occurred with no broadening. 2-Aminobenzamide is known to bind the Cu(II) ion through the amino-N and amido-O atoms.

BChE = molecular target: T2, BChE (Homo sapiens, UniProt P06276); test: biochemical; settings: mean ± SD of three independent experiments
T2 construct: purchased Cloud-Clone Corp. (via Biocom Africa (Pty) Ltd.)
Method: (§1) The melting point values of the test compounds were recorded on a Thermocouple digital melting point apparatus (Mettler Toledo LLC, Columbus, OH, USA). The infrared (IR) spectra were recorded using the thin-film method on a Bruker VERTEX 70 FT-IR Spectrometer (Bruker Optics, Billerica, MA, USA) equipped with an ATR (diamond attenuated total reflectance) accessory. Merck kieselgel 60 (0.063–0.200 mm) (Merck KGaA, Frankfurt, Germany) was used as a stationary phase for column chromatography. The ^1H-NMR and ^13C-NMR spectra of the prepared compounds were obtained as deuterated dimethyl sulfoxide ((CD3)2SO) solutions using Agilent 500 MHz NMR spectrometer (Agilent Technologies, Oxford, UK) operating at 500 MHz and 125 MHz for ^1H and ^13C, respectively. The chemical shifts are quoted relative to tetramethylsilane (TMS) used as an internal reference standard (δ = 0.00 ppm) or a residual protonated solvent. The high-resolution mass spectra were recorded at an ionization potential of 70 eV using Micromass Autospec-TOF (double focusing high resolution) instrument (Waters Corp., Milford, MA, USA). The synthesis and analytical data for 2-amino-5-iodobenzamide (1) have been reported in our previous study. Recombinant human AChE (BioLegend) and BChE (Cloud-Clone Corp.) were purchased via Biocom Africa (Pty) Ltd. (Centurion, Pretoria, South Africa).
(§2) AChE and BChE were used to determine cholinesterase activities spectrophotometrically using […] as substrates, respectively, following a modification of the Ellman’s method, as described in our previous study, and the reactions were performed in triplicate at 37 °C in a 96-well plate. […] A multi-channel pipette was used for the addition of reagents to the wells.
A total of 8.0 μL of the test compound and 2.0 μL of BChE (0.02 mg/mL) was added to each of the designated wells of the 96-well plate, and the mixtures were incubated at room temperature for 30 min. Tris buffer (70 μL) was added to each well containing the reaction mixture and incubation was continued for a further 10 min at this temperature, which was followed by the addition of 10 μL solution of 5,5′-dithiobis-(2-nitrobenzoic acid) (DTNB) (3 mM in Tris buffer, 50 mM, pH 7.7) and butyrylcholine iodide (5 mM in Tris buffer, 50 mM, pH 7.7) to each well to initiate the reaction. […] The IC50 and standard deviation values using the Graph Pad Prism.

AChE = molecular target: T3, AChE (Homo sapiens, UniProt P22303); test: biochemical; settings: mean ± SD of three independent experiments
T3 construct: purchased BioLegend (via Biocom Africa (Pty) Ltd.)
Method: as §1, §2
To each well of a 96-well plate, 8.0 μL solution of the test compound, 2.0 μL of AChE (0.04 mg/mL), and 70 μL of Tris buffer (C4H11NO3, 50 mM, pH 7.7) were added sequentially. The assay mixture was pre-incubated for 30 min at room temperature, which was followed by the addition of 10 μL of 5,5′-dithiobis-(2-nitrobenzoic acid) (DTNB, 3 mM in Tris buffer, 50 mM, pH 7.7) and 10 μL of […] (AChI, 5 mM in tris buffer, 50 mM, pH 7.7) to each well to initiate the reaction. […] The average values obtained from the absorbance readings were used to determine the IC50 and standard deviation values using the Graph Pad Prism (version 5.0, GraphPad software Inc., San Diego, CA, USA).

[2] = DPPH radical scavenging assay; settings: read-out: IC50 (SD) DPPH
Method: The antioxidant activities of the test compounds against ascorbic acid (Sigma Aldrich, Saint Louis, MO, USA) as a positive control were evaluated using a 2,2-diphenyl-1-picrylhydrazyl (DPPH) radical scavenging assay developed by Zhu et al., as described in our previous study. Duplicate solutions (20 μL) of the test compounds and ascorbic acid in DMSO (final concentrations: 5, 10, 25, 50, and 100 μM) were added into each designated well of a 96-well plate. A solution of DPPH (0.20 mM) (20 μL) in methanol was added to each well, and the 96-well plate was wrapped with aluminium foil and incubated in the dark for 45 min. Five absorbance readings were recorded at 512 nm using a Varioskan flash microplate spectrophotometer reader. The average values obtained from the absorbance readings were used to determine the IC50 and standard deviation values.

T1 sequence (P56817 46-501): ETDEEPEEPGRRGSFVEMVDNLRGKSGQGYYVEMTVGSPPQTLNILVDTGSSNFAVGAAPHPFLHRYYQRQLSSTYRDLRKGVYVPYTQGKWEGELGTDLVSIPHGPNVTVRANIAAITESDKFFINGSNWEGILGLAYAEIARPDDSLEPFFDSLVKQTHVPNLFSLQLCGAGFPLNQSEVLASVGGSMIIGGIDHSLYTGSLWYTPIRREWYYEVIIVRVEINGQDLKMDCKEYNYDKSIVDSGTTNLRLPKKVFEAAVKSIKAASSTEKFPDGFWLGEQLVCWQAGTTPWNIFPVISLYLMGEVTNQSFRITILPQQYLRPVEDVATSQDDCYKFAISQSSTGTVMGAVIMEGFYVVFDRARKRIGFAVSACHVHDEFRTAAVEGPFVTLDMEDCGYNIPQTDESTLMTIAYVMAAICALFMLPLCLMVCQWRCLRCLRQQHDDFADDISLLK
T2 sequence (P06276 29-602): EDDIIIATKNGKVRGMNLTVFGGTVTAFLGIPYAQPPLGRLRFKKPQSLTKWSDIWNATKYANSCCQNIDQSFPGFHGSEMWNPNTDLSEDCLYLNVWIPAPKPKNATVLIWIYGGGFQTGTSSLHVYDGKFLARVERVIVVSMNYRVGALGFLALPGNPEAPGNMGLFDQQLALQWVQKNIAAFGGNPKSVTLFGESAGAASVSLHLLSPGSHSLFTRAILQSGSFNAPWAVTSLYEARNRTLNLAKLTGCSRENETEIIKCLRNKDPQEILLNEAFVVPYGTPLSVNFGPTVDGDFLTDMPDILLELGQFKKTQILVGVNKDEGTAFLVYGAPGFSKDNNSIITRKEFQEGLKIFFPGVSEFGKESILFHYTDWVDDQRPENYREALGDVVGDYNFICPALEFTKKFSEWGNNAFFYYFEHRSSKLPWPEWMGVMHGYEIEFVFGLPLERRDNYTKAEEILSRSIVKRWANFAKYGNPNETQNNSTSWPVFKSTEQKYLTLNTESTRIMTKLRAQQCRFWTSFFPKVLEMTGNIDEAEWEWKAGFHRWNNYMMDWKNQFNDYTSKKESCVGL
T3 sequence (P22303 32-614): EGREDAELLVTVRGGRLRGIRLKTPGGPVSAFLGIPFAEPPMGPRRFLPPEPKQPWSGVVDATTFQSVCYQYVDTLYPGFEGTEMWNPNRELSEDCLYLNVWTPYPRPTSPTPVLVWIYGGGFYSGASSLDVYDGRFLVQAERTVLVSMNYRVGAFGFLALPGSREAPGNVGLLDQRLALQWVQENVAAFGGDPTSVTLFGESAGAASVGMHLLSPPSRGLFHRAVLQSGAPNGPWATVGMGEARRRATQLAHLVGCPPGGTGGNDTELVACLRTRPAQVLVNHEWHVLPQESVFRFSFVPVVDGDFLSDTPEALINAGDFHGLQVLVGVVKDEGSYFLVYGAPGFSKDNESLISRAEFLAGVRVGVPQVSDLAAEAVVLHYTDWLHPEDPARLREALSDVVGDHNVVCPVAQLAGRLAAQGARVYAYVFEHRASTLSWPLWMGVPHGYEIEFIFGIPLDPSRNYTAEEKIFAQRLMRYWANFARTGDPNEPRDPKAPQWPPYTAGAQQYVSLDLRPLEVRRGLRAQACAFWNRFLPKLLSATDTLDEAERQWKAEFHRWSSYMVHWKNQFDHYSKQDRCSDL

In the case of `NC(=O)c1cc(/C=C/c2ccccc2)ccc1N` [Compound 2a, (E)-2-Amino-5-styrylbenzamide], the IC50 (β-secretase) is reported as 15.8 ± 0.26 µM, the “chelation of Cu2+” value ([1]; 30 μM compound and 30 μM CuCl2 in methanol) is reported as “selective for Cu (II) ion” and the “chelation of Zn2+” value ([1]; 30 μM compound and 30 μM ZnCl2 in methanol) is reported as “relatively poor chelating ability”. The IC50 (BChE) was 4.7 ± 0.32 µM, the IC50 (AChE) was 2.3 ± 0.11 µM and the IC50 [2] was 5.8 ± 0.32 µM.
